Data from publication PMC8392721 (Journal of medicinal chemistry, 2021).

Assays:
hNatE = hNatE (Homo sapiens, UniProt Q9GZZ1)
hNatD [1] = target: T1, hNatD (Homo sapiens, UniProt Q86UY6); settings: radioactive assay; acetyl versus propionyl linker, tripeptide SGR
hMOF = target: T2, hMOF (Homo sapiens, UniProt Q9H7Z6); assay: Selectivity assay, hMOF; assay type: biochemical
T2 sequence (Q9H7Z6 1-458): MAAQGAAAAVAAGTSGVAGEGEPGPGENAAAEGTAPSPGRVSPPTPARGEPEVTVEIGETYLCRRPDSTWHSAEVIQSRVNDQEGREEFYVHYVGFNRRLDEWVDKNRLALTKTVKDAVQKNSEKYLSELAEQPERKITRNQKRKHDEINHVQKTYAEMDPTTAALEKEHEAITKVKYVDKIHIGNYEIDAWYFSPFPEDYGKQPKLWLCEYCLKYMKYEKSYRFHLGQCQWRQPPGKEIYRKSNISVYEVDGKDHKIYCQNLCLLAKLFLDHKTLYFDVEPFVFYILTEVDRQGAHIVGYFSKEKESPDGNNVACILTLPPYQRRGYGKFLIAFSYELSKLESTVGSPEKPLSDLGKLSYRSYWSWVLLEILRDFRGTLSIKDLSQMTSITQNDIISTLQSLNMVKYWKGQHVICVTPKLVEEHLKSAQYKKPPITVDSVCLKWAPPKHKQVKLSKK

SpNatC [2] = settings: from no inhibition at 10 μM
SpNatC [3] = target: SpNatC (Schizosaccharomyces pombe, UniProt O74311); settings: at 10 μM; n = 3
Chain of SpNatC (Schizosaccharomyces pombe, UniProt O74311) (O74311 whole entry): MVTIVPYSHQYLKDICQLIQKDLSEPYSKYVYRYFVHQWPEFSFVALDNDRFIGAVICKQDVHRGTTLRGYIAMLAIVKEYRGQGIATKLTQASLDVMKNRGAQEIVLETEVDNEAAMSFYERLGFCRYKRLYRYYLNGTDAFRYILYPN

NatD = NatD (Homo sapiens, UniProt Q86UY6); assay: biochemical
hNatB = hNatB (Homo sapiens, UniProt P61599)
Chain of hNatB (P61599 1-163 limits assumed): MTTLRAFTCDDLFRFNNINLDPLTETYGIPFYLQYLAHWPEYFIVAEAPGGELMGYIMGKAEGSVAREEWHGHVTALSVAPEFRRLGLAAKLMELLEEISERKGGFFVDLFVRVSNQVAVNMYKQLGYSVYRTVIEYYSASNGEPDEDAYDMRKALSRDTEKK
Chain of hNatB (Q14CX7 whole entry partner): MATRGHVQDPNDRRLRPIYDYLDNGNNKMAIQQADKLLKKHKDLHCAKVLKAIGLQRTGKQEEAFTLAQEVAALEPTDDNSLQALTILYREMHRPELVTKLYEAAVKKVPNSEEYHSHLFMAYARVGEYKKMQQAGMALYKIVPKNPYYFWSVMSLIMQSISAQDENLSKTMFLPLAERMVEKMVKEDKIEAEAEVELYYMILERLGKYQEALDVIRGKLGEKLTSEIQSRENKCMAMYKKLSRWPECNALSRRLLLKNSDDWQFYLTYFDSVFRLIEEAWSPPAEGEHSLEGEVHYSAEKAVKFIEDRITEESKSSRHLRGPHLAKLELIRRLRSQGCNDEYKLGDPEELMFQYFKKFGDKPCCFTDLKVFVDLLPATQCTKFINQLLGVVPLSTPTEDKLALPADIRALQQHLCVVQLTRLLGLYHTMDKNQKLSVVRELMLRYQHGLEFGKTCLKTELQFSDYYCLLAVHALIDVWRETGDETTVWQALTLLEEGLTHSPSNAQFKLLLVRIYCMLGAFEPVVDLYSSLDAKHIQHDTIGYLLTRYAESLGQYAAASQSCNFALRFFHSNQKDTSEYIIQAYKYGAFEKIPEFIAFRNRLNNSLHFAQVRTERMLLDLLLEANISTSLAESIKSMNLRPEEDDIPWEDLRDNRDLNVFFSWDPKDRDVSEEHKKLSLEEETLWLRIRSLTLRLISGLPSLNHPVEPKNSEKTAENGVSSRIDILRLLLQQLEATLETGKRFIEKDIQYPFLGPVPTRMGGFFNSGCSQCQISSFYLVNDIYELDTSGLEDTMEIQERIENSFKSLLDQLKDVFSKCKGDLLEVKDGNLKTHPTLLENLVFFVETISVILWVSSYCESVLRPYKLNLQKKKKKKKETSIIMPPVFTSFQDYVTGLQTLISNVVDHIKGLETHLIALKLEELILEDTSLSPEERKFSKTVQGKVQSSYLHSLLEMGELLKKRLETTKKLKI

hNatA = target: T3, hNatA (Homo sapiens, UniProt P41227); assay: Selectivity assay, NatA; assay type: biochemical
T3 sequence (P41227 1-160 limits assumed): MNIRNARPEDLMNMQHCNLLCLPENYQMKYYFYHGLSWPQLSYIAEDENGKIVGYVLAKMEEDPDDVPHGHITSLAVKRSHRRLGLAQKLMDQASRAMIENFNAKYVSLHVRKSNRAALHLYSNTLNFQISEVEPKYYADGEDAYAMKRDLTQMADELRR
T3 sequence (Q9BXJ9 1-866 partner): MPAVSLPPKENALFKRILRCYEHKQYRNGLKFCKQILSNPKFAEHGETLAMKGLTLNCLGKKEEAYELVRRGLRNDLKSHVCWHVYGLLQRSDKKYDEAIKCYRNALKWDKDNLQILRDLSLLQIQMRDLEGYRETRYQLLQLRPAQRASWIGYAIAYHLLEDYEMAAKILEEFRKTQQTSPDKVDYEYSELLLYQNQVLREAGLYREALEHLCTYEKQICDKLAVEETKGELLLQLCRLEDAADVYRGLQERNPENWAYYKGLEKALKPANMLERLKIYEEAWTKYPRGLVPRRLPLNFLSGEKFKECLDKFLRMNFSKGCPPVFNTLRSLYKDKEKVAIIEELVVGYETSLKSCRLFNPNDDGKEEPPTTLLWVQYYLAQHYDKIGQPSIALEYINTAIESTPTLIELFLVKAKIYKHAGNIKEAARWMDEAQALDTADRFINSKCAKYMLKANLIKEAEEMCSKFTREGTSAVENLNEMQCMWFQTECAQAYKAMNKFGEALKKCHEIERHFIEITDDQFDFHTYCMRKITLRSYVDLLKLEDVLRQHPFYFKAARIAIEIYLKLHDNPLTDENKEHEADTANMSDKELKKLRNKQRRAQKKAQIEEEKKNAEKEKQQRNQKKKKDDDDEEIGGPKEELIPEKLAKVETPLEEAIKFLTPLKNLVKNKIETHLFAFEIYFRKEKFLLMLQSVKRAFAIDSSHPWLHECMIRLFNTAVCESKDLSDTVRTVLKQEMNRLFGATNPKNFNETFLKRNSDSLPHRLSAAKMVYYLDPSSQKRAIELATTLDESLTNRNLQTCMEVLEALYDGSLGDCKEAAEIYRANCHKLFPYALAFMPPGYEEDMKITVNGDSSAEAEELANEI

PCAF = PCAF (Homo sapiens, UniProt Q92831)
Chain of PCAF (Q92831 whole entry): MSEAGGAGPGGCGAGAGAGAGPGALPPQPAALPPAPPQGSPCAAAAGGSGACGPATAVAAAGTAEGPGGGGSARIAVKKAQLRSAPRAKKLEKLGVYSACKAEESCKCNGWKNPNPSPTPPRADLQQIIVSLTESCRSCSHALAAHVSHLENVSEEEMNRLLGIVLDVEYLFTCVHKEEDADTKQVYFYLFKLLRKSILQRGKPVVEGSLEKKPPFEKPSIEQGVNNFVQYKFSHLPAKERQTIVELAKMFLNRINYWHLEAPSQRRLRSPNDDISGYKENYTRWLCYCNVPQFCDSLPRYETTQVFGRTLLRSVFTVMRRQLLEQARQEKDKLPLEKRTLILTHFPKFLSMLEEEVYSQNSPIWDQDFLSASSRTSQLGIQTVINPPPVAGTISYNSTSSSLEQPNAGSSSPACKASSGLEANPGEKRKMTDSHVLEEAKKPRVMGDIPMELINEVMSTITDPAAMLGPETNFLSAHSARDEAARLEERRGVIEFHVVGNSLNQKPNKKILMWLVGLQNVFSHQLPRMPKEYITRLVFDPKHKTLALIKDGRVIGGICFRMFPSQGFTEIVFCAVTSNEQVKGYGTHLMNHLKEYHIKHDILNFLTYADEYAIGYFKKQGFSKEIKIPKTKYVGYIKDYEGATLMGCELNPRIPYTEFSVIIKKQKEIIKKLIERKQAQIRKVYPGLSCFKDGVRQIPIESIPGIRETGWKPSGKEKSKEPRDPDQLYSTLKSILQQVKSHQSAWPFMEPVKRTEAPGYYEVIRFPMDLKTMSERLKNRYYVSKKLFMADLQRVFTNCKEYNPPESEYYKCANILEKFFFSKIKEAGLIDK

hNatD [4] = target: T1, hNatD; assay: biochemical

Chain of hNatE (Q9GZZ1 whole entry, one chain of several): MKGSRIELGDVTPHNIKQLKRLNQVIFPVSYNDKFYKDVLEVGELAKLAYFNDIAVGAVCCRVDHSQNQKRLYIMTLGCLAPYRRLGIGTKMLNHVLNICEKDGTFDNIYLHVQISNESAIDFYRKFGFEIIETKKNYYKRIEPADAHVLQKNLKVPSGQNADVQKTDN

With CC(C)(COP(=O)(O)OP(=O)(O)OC[C@H]1O[C@@H](n2cnc3c(N)ncnc32)[C@H](O)[C@@H]1OP(=O)(O)O)[C@@H](O)C(=O)NCCC(=O)NCCSCC(=O)N[C@@H](CO)C(=O)NCC(=O)N[C@@H](CCCNC(=N)N)C(N)=O [Compound 7, CoA-C2-SGR] the “inhibition towards NatE” value (hNatE; at 10 μM, n = 3) was “did not show any inhibition”, the “selectivity for NatD over NatE” value (hNatE; from no inhibition at 10 μM) was “over 10,000 fold” and the “fold more potent than 8” value (hNatD [1]) was 2 fold. The IC50 (hMOF) was over 100 nM, the “selectivity for NatD over NatC” value (SpNatC [2]) was “over 10,000 fold” and the “inhibition towards NatC” value (SpNatC [3]) was “did not show any inhibition”. The IC50 (NatD) was 29 ± 5.6 nM, the “inhibition towards NatB” value (hNatB; at 10 μM, n = 3) was “did not show any inhibition” and the “selectivity for NatD over NatB” value (hNatB; from no inhibition at 10 μM) was “over 10,000 fold”. The IC50 (hNatA) was over 100 nM, the “inhibition towards PCAF” value (PCAF; at 10 μM, n = 3) was “did not show any inhibition” and the “selectivity for NatD over PCAF” value (PCAF; from no inhibition at 10 μM) was “over 10,000 fold”. The IC50 (hNatD [4]) was 16 ± 4.9 nM.
